From ChEMBL document CHEMBL1147590, “Synthesis and antitumor activity of s-tetrazine derivatives” (Bioorg Med Chem Lett, 2004) come the findings set out here.

Assay [1] has as its system A549. In words: In vitro rate of inhibition of A-549 tumor cell growth at 10E-8 mol/L. The format is functional, Homo sapiens. The settings on record: at 0.01 µM.
The test system of assay [2] is P388. In words: In vitro rate of inhibition of P388 tumor cell growth at 10E-7 mol/L. The format is functional, Mus musculus. Conditions: at 0.1 µM.
In assay [3] the test system is P388. In words: In vitro rate of inhibition of P388 tumor cell growth at 10E-4 mol/L. The format is functional, Mus musculus. Conditions: at 100 µM.
The subject of assay [4] is P388. As to the kind of experiment: In vitro rate of inhibition of P388 tumor cell growth at 10E-8 mol/L. The format is functional, Mus musculus. Conditions: at 0.01 µM.
For assay [5], the system named is A549. As to the kind of experiment: In vitro rate of inhibition of A-549 tumor cell growth at 10E-6 mol/L. The class given is functional, Homo sapiens. Conditions: at 1 µM.
Assay [6] has as its system A549. In words: In vitro rate of inhibition of A-549 tumor cell growth at 10E-4 mol/L. The format is functional, Homo sapiens. The settings on record: at 100 µM.
In assay [7] the test system is P388. In words: In vitro rate of inhibition of P388 tumor cell growth at 10E-6 mol/L. The format is functional, Mus musculus. Conditions: at 1 µM.
Assay [8] relates to A549. In words: In vitro rate of inhibition of A-549 tumor cell growth at 10E-7 mol/L. The class given is functional, Homo sapiens. The settings on record: at 0.1 µM.
The test system of assay [9] is A549. As to the kind of experiment: In vitro rate of inhibition of A-549 tumor cell growth at 10E-5 mol/L. The format is functional, Homo sapiens. The settings on record: at 10 µM.
Assay [10] relates to P388. In words: In vitro rate of inhibition of P388 tumor cell growth at 10E-5 mol/L. The format is functional, Mus musculus. The settings on record: at 10 µM.

As for `COc1cccc(NC(=O)N2N=C(C)N(C(=O)Nc3cccc(OC)c3)N=C2C)c1`, the Rate of inhibition worked out at 86.2% in the assay with A549 [1]; 95.2% with P388 [2]; 95.3% in the assay on P388 [3]; 92.2% in the assay on P388 [4]; 84.6% in the assay on A549 [5]; 87.7% with A549 [6]. Moreover, the Rate of inhibition in the assay with P388 [7] was found to be 93.8%; with A549 [8], 89.2%; in the assay with A549 [9], 86.2%; in the assay on P388 [10], 93.8%.
Regarding `CCC1=NN(C(=O)Nc2cccc(C)c2)C(CC)=NN1C(=O)Nc1cccc(C)c1`, the Rate of inhibition in the assay with A549 [1] worked out at 1.6%; with P388 [2], 0%; in the assay with P388 [3] it was 91.6%; in the assay with P388 [4], 0%; in the assay on A549 [5] it was 81.1%; in the assay on A549 [6], 90.4%. The Rate of inhibition stood at 0% in the assay with P388 [7], 16.7% in the assay with A549 [8], 84.1% in the assay with A549 [9] and 63.5% in the assay with P388 [10].
As for `CCCC1=NN(C(=O)OCC)C(CCC)N=N1` (configuration not stated), the Rate of inhibition is recorded as 0% in the assay on A549 [1]; 5% in the assay on P388 [2]; 35.4% with P388 [3]; 3.6% in the assay on P388 [4]; 0% in the assay with A549 [5]; 12.5% with A549 [6]. Moreover, the Rate of inhibition in the assay on P388 [7] was found to be 2.2%; in the assay with A549 [8], 0%; with A549 [9] it was 0%; in the assay on P388 [10], 15%.
On to `CCCC1NN(C(C)=O)C(CCC)NN1C(C)=O` (configuration not stated), for which the Rate of inhibition in the assay on A549 [1] was 0%; in the assay on P388 [2], 3.1%; with P388 [3], 38.5%; in the assay on P388 [4], 0%; in the assay with A549 [5], 4%; in the assay with A549 [6] it was 59.8%. For the same compound, the Rate of inhibition in the assay on P388 [7] amounted to 3.2%; in the assay with A549 [8], 1.2%; in the assay on A549 [9], 8.6%; with P388 [10] it was 5.5%.
Turning to `CCCC1=NN(C(=O)OC)C(CCC)N=N1` (configuration not stated), the Rate of inhibition turned out to be 0% with A549 [1]; 1.7% in the assay on P388 [2]; 90.4% in the assay with P388 [3]; 3.3% in the assay on P388 [4]; 0% with A549 [5]; 59.6% in the assay with A549 [6]. In addition, the Rate of inhibition in the assay with P388 [7] came out at 4.5%; in the assay with A549 [8], 0%; in the assay with A549 [9], 0%; in the assay with P388 [10], 17.3%.
As for `CC(C)C(=O)N1N=C(c2ccccc2)NN=C1c1ccccc1`, the Rate of inhibition came out at 29.5% in the assay on A549 [1]; 24.9% in the assay on P388 [2]; 82.5% in the assay with P388 [3]; 46.9% in the assay on P388 [4]; 38.7% in the assay with A549 [5]; 83.8% in the assay with A549 [6]. Besides, the Rate of inhibition is reported as 52% in the assay on P388 [7], 29.6% in the assay on A549 [8], 46.6% in the assay with A549 [9] and 61.1% in the assay with P388 [10].
`CC1=NN(C(=O)Nc2cccc(C(F)(F)F)c2)C(C)=NN1C(=O)Nc1cccc(C(F)(F)F)c1`: the Rate of inhibition amounted to 16.1% in the assay with A549 [1]; 0% with P388 [2]; 73% in the assay with P388 [3]; 0% in the assay on P388 [4]; 8.9% with A549 [5]; 39.3% in the assay with A549 [6]. Besides, the Rate of inhibition with P388 [7] was 9.5%; in the assay on A549 [8] it was 10.7%; with A549 [9] it was 10.7%; with P388 [10], 28.6%.
Consider `CCC1NN(C(C)=O)C(CC)NN1C(C)=O` (configuration not stated), for which the Rate of inhibition was 0% in the assay with A549 [1]; 0% in the assay on P388 [2]; 38.9% in the assay with P388 [3]; 0% in the assay on P388 [4]; 10.1% in the assay on A549 [5]; 47.5% in the assay with A549 [6]. The Rate of inhibition in the assay on P388 [7] came to 0%; with A549 [8], 2.9%; in the assay with A549 [9] it was 9.7%; with P388 [10], 0%.
Consider `CC1=NN(C(=O)Oc2ccccc2)C(C)N=N1` (configuration not stated), for which the Rate of inhibition in the assay with A549 [1] was found to be 0%; with P388 [2] it was 1.2%; in the assay with P388 [3], 85.3%; with P388 [4], 0%; with A549 [5], 0%; in the assay with A549 [6] it was 32.1%. Besides, the Rate of inhibition with P388 [7] turned out to be 13.6%; with A549 [8] it was 0%; with A549 [9], 0%; in the assay on P388 [10], 27.9%.
In the case of `CCCC1=NN(C(=O)Nc2cccc(C)c2)C(CCC)=NN1C(=O)Nc1cccc(C)c1`, the Rate of inhibition is recorded as 0% in the assay with A549 [1]; 4.8% with P388 [2]; 81.6% with P388 [3]; 0% in the assay on P388 [4]; 74.1% with A549 [5]; 93.3% in the assay on A549 [6]. Besides, the Rate of inhibition is given as 0% in the assay with P388 [7], 4% in the assay on A549 [8], 84.2% in the assay with A549 [9] and 63.9% with P388 [10].
With `CCCCC1NN(C(C)=O)C(CCCC)NN1C(C)=O` (configuration not stated), the Rate of inhibition in the assay with A549 [1] came to 0%; with P388 [2], 0%; with P388 [3], 37.9%; with P388 [4] it was 0%; in the assay on A549 [5], 6.4%; with A549 [6], 47.6%. The Rate of inhibition amounted to 0% in the assay with P388 [7], 4.8% with A549 [8], 13.1% in the assay with A549 [9] and 0% with P388 [10].
Turning to `c1ccc(Cc2nnc(Cc3ccccc3)nn2)cc1`, the Rate of inhibition in the assay on A549 [1] is listed as 0%; in the assay on P388 [2] it was 4.6%; in the assay with P388 [3], 51%; in the assay with P388 [4], 0%; in the assay with A549 [5], 4.3%; in the assay with A549 [6] it was 66.8%. In addition, the Rate of inhibition with P388 [7] stood at 18.5%; in the assay with A549 [8], 0%; in the assay on A549 [9], 61.7%; in the assay on P388 [10], 15.6%.
`Clc1cccc(-c2nnc(-c3cccc(Cl)c3)nn2)c1`: the Rate of inhibition in the assay on A549 [1] was determined as 0%; with P388 [2], 13.5%; with P388 [3] it was 40.3%; in the assay with P388 [4], 4.3%; in the assay on A549 [5], 0%; in the assay with A549 [6], 0%. Moreover, the Rate of inhibition in the assay on P388 [7] was 33.2%; in the assay with A549 [8], 0%; in the assay with A549 [9], 0%; in the assay with P388 [10] it was 26.5%.
As for `COC(=O)N1C(c2ccccc2)=NN=C(c2ccccc2)N1C(=O)OC`, the Rate of inhibition is 0% with A549 [1]; 5.2% in the assay with P388 [2]; 50.5% in the assay with P388 [3]; 3.3% in the assay on P388 [4]; 0% with A549 [5]; 35.5% with A549 [6]. For the same compound, the Rate of inhibition in the assay on P388 [7] was found to be 11.6%; in the assay on A549 [8], 0%; in the assay with A549 [9] it was 0%; in the assay on P388 [10] it was 14.6%.
As to `CC1=NN(C(=O)Nc2cc(Cl)cc(Cl)c2)C(C)=NN1C(=O)Nc1cc(Cl)cc(Cl)c1`, the Rate of inhibition in the assay with A549 [1] is listed as 0%; with P388 [2] it was 0%; in the assay with P388 [3], 30.6%; with P388 [4], 0%; in the assay with A549 [5], 0%; in the assay on A549 [6], 42%. Besides, the Rate of inhibition was found to be 1.9% in the assay on P388 [7], 0% in the assay with A549 [8], 0% with A549 [9] and 5.9% in the assay on P388 [10].
Turning to `CCCCCOC(=O)N1N=C(C)N=NC1C` (configuration not stated), the Rate of inhibition came to 7.6% with A549 [1]; 0% in the assay with P388 [2]; 42.6% with P388 [3]; 0% in the assay with P388 [4]; 0% with A549 [5]; 22.8% in the assay with A549 [6]. Moreover, the Rate of inhibition with P388 [7] worked out at 7.3%; with A549 [8], 1.1%; in the assay with A549 [9], 4.6%; in the assay with P388 [10], 19.8%.
In the case of `CCCC1=NN(C(=O)OCCC(C)C)C(CCC)N=N1` (configuration not stated), the Rate of inhibition with A549 [1] amounted to 0%; in the assay on P388 [2], 7.3%; with P388 [3], 83.5%; in the assay on P388 [4] it was 9.9%; in the assay on A549 [5], 0%; in the assay with A549 [6] it was 89.4%. The Rate of inhibition is on record as 6.9% in the assay with P388 [7], 0% in the assay on A549 [8], 0% in the assay on A549 [9] and 14.3% in the assay with P388 [10].
As to `c1ccc(C2=NNC(c3ccccc3)=NN2)cc1`, the Rate of inhibition is 10.2% in the assay on P388 [2]; 55.8% with P388 [3]; 0% in the assay on A549 [5]; 87.6% with A549 [6]; 5.4% in the assay on P388 [7]; 0% in the assay with A549 [8]. The Rate of inhibition in the assay with A549 [9] amounted to 69%; with P388 [10], 67.2%.
Consider `Cc1cccnc1-c1nnc(-c2ncccc2C)nn1`, for which the Rate of inhibition in the assay with P388 [3] was found to be 2.6%; in the assay on A549 [6] it was 0%; in the assay on A549 [9], 0%; with P388 [10], 3.6%.
